From PubChem BioAssay AID1259407 (Chemical Carcinogenesis Research Information System (CCRIS), 2018)
Activity calls are given as the source filed them. No rule for the calls is given here.

System: CCRIS mutagenicity, Ames/micronucleus/aberration tests
Experiment: CCRIS mutagenicity studies
[1] = Test System: AMES SALMONELLA TYPHIMURIUM, Strain/Indicator: TA98, Metabolic Activation: NONE, Method: PREINCUBATION
[2] = Test System: AMES SALMONELLA TYPHIMURIUM, Strain/Indicator: TA100, Metabolic Activation: NONE, Method: PREINCUBATION
[3] = Test System: AMES SALMONELLA TYPHIMURIUM, Strain/Indicator: TA98, Metabolic Activation: NONE, Method: STANDARD PLATE
[4] = Test System: AMES SALMONELLA TYPHIMURIUM, Strain/Indicator: TA100, Metabolic Activation: NONE, Method: STANDARD PLATE

Measured: mutagenic call

CCCCCCC(C)OC(=O)C[S][Sn]([CH2]CCC)([S]CC(=O)OC(C)CCCCCC)[S]CC(=O)OC(C)CCCCCC (stereo unspecified)
inactive: Test System: AMES SALMONELLA TYPHIMURIUM, Strain/Indicator: TA97, Metabolic Activation: HAMSTER, LIVER, S-9, AROCLOR 1254 (10 OR 30%), Method: PREINCUBATION inactive; negative | Test System: AMES SALMONELLA TYPHIMURIUM, Strain/Indicator: TA97, Metabolic Activation: NONE, Method: PREINCUBATION inactive; negative | Test System: AMES SALMONELLA TYPHIMURIUM, Strain/Indicator: TA97, Metabolic Activation: RAT, LIVER, S-9, AROCLOR 1254 (10 OR 30%), Method: PREINCUBATION inactive; negative | Test System: AMES SALMONELLA TYPHIMURIUM, Strain/Indicator: TA98, Metabolic Activation: HAMSTER, LIVER, S-9, AROCLOR 1254 (10 OR 30%), Method: PREINCUBATION inactive; negative | [1] inactive; negative | Test System: AMES SALMONELLA TYPHIMURIUM, Strain/Indicator: TA98, Metabolic Activation: RAT, LIVER, S-9, AROCLOR 1254 (10 OR 30%), Method: PREINCUBATION inactive; negative | Test System: AMES SALMONELLA TYPHIMURIUM, Strain/Indicator: TA100, Metabolic Activation: HAMSTER, LIVER, S-9, AROCLOR 1254 (10 OR 30%), Method: PREINCUBATION inactive; negative | [2] inactive; negative | Test System: AMES SALMONELLA TYPHIMURIUM, Strain/Indicator: TA100, Metabolic Activation: RAT, LIVER, S-9, AROCLOR 1254 (10 OR 30%), Method: PREINCUBATION inactive; negative | Test System: AMES SALMONELLA TYPHIMURIUM, Strain/Indicator: TA1535, Metabolic Activation: HAMSTER, LIVER, S-9, AROCLOR 1254 (10 OR 30%), Method: PREINCUBATION inactive; negative | Test System: AMES SALMONELLA TYPHIMURIUM, Strain/Indicator: TA1535, Metabolic Activation: NONE, Method: PREINCUBATION inactive; negative | Test System: AMES SALMONELLA TYPHIMURIUM, Strain/Indicator: TA1535, Metabolic Activation: RAT, LIVER, S-9, AROCLOR 1254 (10 OR 30%), Method: PREINCUBATION inactive; negative

CS(C)(=O)=O
inactive: [1] inactive; negative | Test System: AMES SALMONELLA TYPHIMURIUM, Strain/Indicator: TA98, Metabolic Activation: RAT, LIVER, S-9, AROCLOR 1254, Method: PREINCUBATION inactive; negative | [2] inactive; negative | Test System: AMES SALMONELLA TYPHIMURIUM, Strain/Indicator: TA100, Metabolic Activation: RAT, LIVER, S-9, AROCLOR 1254, Method: PREINCUBATION inactive; negative | Test System: AMES SALMONELLA TYPHIMURIUM, Strain/Indicator: TA102, Metabolic Activation: NONE, Method: PREINCUBATION inactive; negative | Test System: AMES SALMONELLA TYPHIMURIUM, Strain/Indicator: TA102, Metabolic Activation: RAT, LIVER, S-9, AROCLOR 1254, Method: PREINCUBATION inactive; negative

CCc1c2ccccc2cc2c1c1c(c3ccccc32)N1
active: [1] active; positive

CCCCCCCCC=O
inactive: End Point: IN VITRO CHROMOSOMAL ABERRATIONS, Test System: RAT HEPATOCYTES, Metabolic Activation: NONE inactive; negative | End Point: IN VITRO MICRONUCLEUS, Test System: RAT HEPATOCYTES, Metabolic Activation: NONE inactive; negative | Test System: AMES SALMONELLA TYPHIMURIUM, Strain/Indicator: TA98, Metabolic Activation: HAMSTER, LIVER, S-9, AROCLOR 1254, Method: STANDARD PLATE inactive; negative | [3] inactive; negative | Test System: AMES SALMONELLA TYPHIMURIUM, Strain/Indicator: TA98, Metabolic Activation: RAT, LIVER, S-9, AROCLOR 1254, Method: STANDARD PLATE inactive; negative | Test System: AMES SALMONELLA TYPHIMURIUM, Strain/Indicator: TA98, Metabolic Activation: RAT, LIVER, S-9, AROCLOR, Method: STANDARD PLATE inactive; negative | Test System: AMES SALMONELLA TYPHIMURIUM, Strain/Indicator: TA100, Metabolic Activation: HAMSTER, LIVER, S-9, AROCLOR 1254, Method: STANDARD PLATE inactive; negative | [4] inactive; negative | Test System: AMES SALMONELLA TYPHIMURIUM, Strain/Indicator: TA100, Metabolic Activation: RAT, LIVER, S-9, AROCLOR 1254, Method: STANDARD PLATE inactive; negative | Test System: AMES SALMONELLA TYPHIMURIUM, Strain/Indicator: TA100, Metabolic Activation: RAT, LIVER, S-9, AROCLOR, Method: STANDARD PLATE inactive; negative | Test System: AMES SALMONELLA TYPHIMURIUM, Strain/Indicator: TA1535, Metabolic Activation: HAMSTER, LIVER, S-9, AROCLOR 1254, Method: STANDARD PLATE inactive; negative | Test System: AMES SALMONELLA TYPHIMURIUM, Strain/Indicator: TA1535, Metabolic Activation: NONE, Method: STANDARD PLATE inactive; negative | Test System: AMES SALMONELLA TYPHIMURIUM, Strain/Indicator: TA1535, Metabolic Activation: RAT, LIVER, S-9, AROCLOR 1254, Method: STANDARD PLATE inactive; negative | Test System: AMES SALMONELLA TYPHIMURIUM, Strain/Indicator: TA1537, Metabolic Activation: HAMSTER, LIVER, S-9, AROCLOR 1254, Method: STANDARD PLATE inactive; negative | Test System: AMES SALMONELLA TYPHIMURIUM, Strain/Indicator: TA1537, Metabolic Activation: NONE, Method: STANDARD PLATE inactive; negative | Test System: AMES SALMONELLA TYPHIMURIUM, Strain/Indicator: TA1537, Metabolic Activation: RAT, LIVER, S-9, AROCLOR 1254, Method: STANDARD PLATE inactive; negative | Test System: AMES SALMONELLA TYPHIMURIUM, Strain/Indicator: TA1538, Metabolic Activation: HAMSTER, LIVER, S-9, AROCLOR 1254, Method: STANDARD PLATE inactive; negative | Test System: AMES SALMONELLA TYPHIMURIUM, Strain/Indicator: TA1538, Metabolic Activation: NONE, Method: STANDARD PLATE inactive; negative | Test System: AMES SALMONELLA TYPHIMURIUM, Strain/Indicator: TA1538, Metabolic Activation: RAT, LIVER, S-9, AROCLOR 1254, Method: STANDARD PLATE inactive; negative | Test System: AMES SALMONELLA TYPHIMURIUM, Strain/Indicator: UTH8413, Metabolic Activation: NONE, Method: STANDARD PLATE inactive; negative | Test System: AMES SALMONELLA TYPHIMURIUM, Strain/Indicator: UTH8413, Metabolic Activation: RAT, LIVER, S-9, AROCLOR, Method: STANDARD PLATE inactive; negative | Test System: AMES SALMONELLA TYPHIMURIUM, Strain/Indicator: UTH8414, Metabolic Activation: NONE, Method: STANDARD PLATE inactive; negative | Test System: AMES SALMONELLA TYPHIMURIUM, Strain/Indicator: UTH8414, Metabolic Activation: RAT, LIVER, S-9, AROCLOR, Method: STANDARD PLATE inactive; negative | Test System: MOUSE LYMPHOMA, Strain/Indicator: L5178Y (TK+/TK-), Metabolic Activation: NONE, Method: SUSPENSION/PLATE inactive; negative. reevaluation of results: equivocal | Test System: MOUSE LYMPHOMA, Strain/Indicator: L5178Y (TK+/TK-), Metabolic Activation: RAT, LIVER, S-9, AROCLOR 1254, Method: SUSPENSION/PLATE inactive; negative. reevaluation of results: equivocal | Test System: UDS HUMAN HEPATOCYTES, Strain/Indicator: THY INCORP, Metabolic Activation: NONE, Method: AUTORADIOGRAPHY inactive; negative | Test System: UDS RAT HEPATOCYTES, Strain/Indicator: THY INCORP, Metabolic Activation: NONE, Method: AUTORADIOGRAPHY inactive; negative
active: Test System: CHINESE HAMSTER V-79, Strain/Indicator: V-79/6-THIOGUANINE (HGPRT), Metabolic Activation: NONE, Method: REPLATING active; positive | Test System: CHINESE HAMSTER V-79, Strain/Indicator: V-79/OUABAIN (NA/K), Metabolic Activation: NONE, Method: REPLATING active; positive

COC(=O)c1cc(Cc2ccc(N)c(C(=O)OC)c2)ccc1N
inactive: [1] inactive; negative | [2] inactive; negative
active: Test System: AMES SALMONELLA TYPHIMURIUM, Strain/Indicator: TA98, Metabolic Activation: RAT, LIVER, S-9, PCB, Method: PREINCUBATION active; positive | Test System: AMES SALMONELLA TYPHIMURIUM, Strain/Indicator: TA100, Metabolic Activation: RAT, LIVER, S-9, PCB, Method: PREINCUBATION active; positive

O=C1C=CC[C@H](/C=C/c2ccccc2)O1
active: End Point: IN VITRO CHROMOSOMAL ABERRATIONS, Test System: CHO CELLS, Metabolic Activation: NONE active; positive (structural changes) | End Point: IN VITRO CHROMOSOMAL ABERRATIONS, Test System: CHO CELLS, Metabolic Activation: RAT, LIVER, S-9, AROCLOR 1254 active; positive (structural changes)

O=CC(Cl)=C(Cl)Cl
active: [3] active; positive | [4] active; positive
